#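 Test compounds were applied to cells in 96-well plates for 48 hours at 5 doses. GI50: concentration for 50% inhibition of growth.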 Calls of active or inactive are those of the source. No stated cut-off is given here; in the data, active = GI50 up to about 1.1 µM and inactive = higher.
# Columns and labels:
# Test in all cases: DTP human tumour cell line panel, 48 h
# Hs-578T = tested on: Hs-578T
# OVCAR-5 = tested on: OVCAR-5
# RPMI-8226 = tested on: RPMI-8226
# KM12 = tested on: KM12
# M14 = tested on: M14
# 786-0 = tested on: 786-0
# CCRF-CEM = tested on: CCRF-CEM
# ACHN = tested on: ACHN
# SK-MEL-5 = tested on: SK-MEL-5
# IGROV-1 = tested on: IGROV-1
# NCI-H460 = tested on: NCI-H460
# UACC-257 = tested on: UACC-257
# SN12C = tested on: SN12C
# MOLT-4 = tested on: MOLT-4
# NCI-H23 = tested on: NCI-H23
# MDA-MB-435 = tested on: MDA-MB-435
# HCC 2998 = tested on: HCC 2998
# HCT-15 = tested on: HCT-15
# RXF 393 = tested on: RXF 393
# HT-29 = tested on: HT-29
# MDA-MB-231 = tested on: MDA-MB-231
# UACC-62 = tested on: UACC-62
# NCI/ADR-RES = tested on: NCI/ADR-RES
# SF-539 = tested on: SF-539
# NCI-H522 = tested on: NCI-H522
# U-251 = tested on: U-251
# MCF7 = tested on: MCF7
# PC-3 = tested on: PC-3
# SNB-19 = tested on: SNB-19
# T47D = tested on: T47D
# A549 = tested on: A549
# UO-31 = tested on: UO-31
# SK-OV-3 = tested on: SK-OV-3
# OVCAR-3 = tested on: OVCAR-3
# OVCAR-4 = tested on: OVCAR-4
# CAKI-1 = tested on: CAKI-1
# HOP-92 = tested on: HOP-92
# COLO 205 = tested on: COLO 205
# SNB-75 = tested on: SNB-75
# SK-MEL-28 = tested on: SK-MEL-28
# A498 = tested on: A498
# HCT-116 = tested on: HCT-116
# SW-620 = tested on: SW-620
# LOX IMVI = tested on: LOX IMVI
# HOP-62 = tested on: HOP-62
# NCI-H226 = tested on: NCI-H226
# SF-268 = tested on: SF-268
# EKVX = tested on: EKVX
# BT-549 = tested on: BT-549
# OVCAR-8 = tested on: OVCAR-8
# DU-145 = tested on: DU-145
# Malme-3M = tested on: Malme-3M
# K562 = tested on: K562
# MDA-N = tested on: MDA-N
# SR = tested on: SR
# TK-10 = tested on: TK-10
# SK-MEL-2 = tested on: SK-MEL-2
# HL-60 = tested on: HL-60
# SF-295 = tested on: SF-295
smiles,measurement,setting,value
NC1CCC(c2cc3ccccc3s2)(N2CCCCC2)CC1 (configuration not stated),GI50,Hs-578T,4.11 µM (inactive)
same,GI50,OVCAR-5,1.48 µM (inactive)
same,GI50,RPMI-8226,0.817 µM (active)
same,GI50,KM12,1.73 µM (inactive)
same,GI50,M14,1.54 µM (inactive)
same,GI50,786-0,1.5 µM (inactive)
same,GI50,CCRF-CEM,1.01 µM (active)
same,GI50,ACHN,3.41 µM (inactive)
same,GI50,SK-MEL-5,2.08 µM (inactive)
same,GI50,IGROV-1,1.66 µM (inactive)
same,GI50,NCI-H460,1.63 µM (inactive)
same,GI50,UACC-257,1.62 µM (inactive)
same,GI50,SN12C,1.67 µM (inactive)
same,GI50,MOLT-4,1.32 µM (inactive)
same,GI50,NCI-H23,1.64 µM (inactive)
same,GI50,MDA-MB-435,1.35 µM (inactive)
same,GI50,HCC 2998,1.04 µM (active)
same,GI50,HCT-15,1.77 µM
same,GI50,RXF 393,6.01 µM (inactive)
same,GI50,HT-29,1.21 µM (inactive)
same,GI50,MDA-MB-231,3.35 µM (inactive)
same,GI50,UACC-62,2.47 µM (inactive)
same,GI50,NCI/ADR-RES,1.19 µM (inactive)
same,GI50,SF-539,2.06 µM (inactive)
same,GI50,NCI-H522,1.76 µM (inactive)
same,GI50,U-251,1.53 µM (inactive)
same,GI50,MCF7,1.68 µM (inactive)
same,GI50,PC-3,1.55 µM (inactive)
same,GI50,SNB-19,12.5 µM (inactive)
same,GI50,T47D,2.09 µM (inactive)
same,GI50,A549,1.77 µM (inactive)
same,GI50,UO-31,2.31 µM (inactive)
same,GI50,SK-OV-3,10.6 µM (inactive)
same,GI50,OVCAR-3,1.27 µM (inactive)
same,GI50,OVCAR-4,3.33 µM (inactive)
same,GI50,CAKI-1,2.57 µM (inactive)
same,GI50,HOP-92,0.489 µM (active)
same,GI50,COLO 205,1.58 µM (inactive)
same,GI50,SNB-75,10.5 µM (inactive)
same,GI50,SK-MEL-28,1.58 µM (inactive)
same,GI50,A498,9.29 µM (inactive)
same,GI50,HCT-116,1.69 µM (inactive)
same,GI50,SW-620,1.61 µM (inactive)
same,GI50,LOX IMVI,1.51 µM (inactive)
same,GI50,HOP-62,1.35 µM (inactive)
same,GI50,NCI-H226,24.1 µM (inactive)
same,GI50,SF-268,3.57 µM (inactive)
same,GI50,EKVX,1.41 µM (inactive)
same,GI50,BT-549,1.21 µM (inactive)
same,GI50,OVCAR-8,1.72 µM (inactive)
same,GI50,DU-145,4.67 µM (inactive)
same,GI50,Malme-3M,2.23 µM (inactive)
same,GI50,K562,1.63 µM (inactive)
same,GI50,MDA-N,1.74 µM (inactive)
same,GI50,SR,1.54 µM (inactive)
same,GI50,TK-10,5.78 µM (inactive)
same,GI50,SK-MEL-2,1.55 µM (inactive)
same,GI50,HL-60,1.85 µM (inactive)
same,GI50,SF-295,2.64 µM (inactive)
CC(C)=CCC/C(=C\CC/C(=C\CCc1ccoc1)C(=O)O)C(=O)O,GI50,Hs-578T,> 100 µM (inactive)
same,GI50,OVCAR-5,> 100 µM (inactive)
same,GI50,RPMI-8226,> 100 µM (inactive)
same,GI50,KM12,> 100 µM (inactive)
same,GI50,M14,> 100 µM (inactive)
same,GI50,786-0,> 100 µM (inactive)
same,GI50,CCRF-CEM,> 100 µM (inactive)
same,GI50,ACHN,> 100 µM (inactive)
same,GI50,SK-MEL-5,> 100 µM (inactive)
same,GI50,IGROV-1,> 100 µM (inactive)
same,GI50,UACC-257,> 100 µM (inactive)
same,GI50,SN12C,> 100 µM (inactive)
same,GI50,MOLT-4,> 100 µM (inactive)
same,GI50,NCI-H23,> 100 µM (inactive)
same,GI50,MDA-MB-435,> 100 µM (inactive)
same,GI50,HCC 2998,> 100 µM (inactive)
same,GI50,HCT-15,> 100 µM
same,GI50,RXF 393,> 100 µM (inactive)
same,GI50,HT-29,> 100 µM (inactive)
same,GI50,MDA-MB-231,> 100 µM (inactive)
same,GI50,UACC-62,> 100 µM (inactive)
same,GI50,NCI/ADR-RES,> 100 µM (inactive)
same,GI50,SF-539,> 100 µM (inactive)
same,GI50,NCI-H522,> 100 µM (inactive)
same,GI50,U-251,> 100 µM (inactive)
same,GI50,MCF7,> 100 µM (inactive)
same,GI50,PC-3,> 100 µM (inactive)
same,GI50,SNB-19,> 100 µM (inactive)
same,GI50,T47D,> 100 µM (inactive)
same,GI50,A549,> 100 µM (inactive)
same,GI50,UO-31,> 100 µM (inactive)
same,GI50,SK-OV-3,> 100 µM (inactive)
same,GI50,OVCAR-3,> 100 µM (inactive)
same,GI50,OVCAR-4,> 100 µM (inactive)
same,GI50,CAKI-1,> 100 µM (inactive)
same,GI50,HOP-92,> 100 µM (inactive)
same,GI50,COLO 205,> 100 µM (inactive)
same,GI50,SNB-75,> 100 µM (inactive)
same,GI50,SK-MEL-28,> 100 µM (inactive)
same,GI50,A498,> 100 µM (inactive)
same,GI50,HCT-116,> 100 µM (inactive)
same,GI50,SW-620,> 100 µM (inactive)
same,GI50,LOX IMVI,> 100 µM (inactive)
same,GI50,HOP-62,> 100 µM (inactive)
same,GI50,NCI-H226,> 100 µM (inactive)
same,GI50,SF-268,92.3 µM (inactive)
same,GI50,EKVX,> 100 µM (inactive)
same,GI50,BT-549,> 100 µM (inactive)
same,GI50,OVCAR-8,> 100 µM (inactive)
same,GI50,DU-145,> 100 µM (inactive)
same,GI50,Malme-3M,> 100 µM (inactive)
same,GI50,K562,> 100 µM (inactive)
same,GI50,MDA-N,> 100 µM (inactive)
same,GI50,SR,> 100 µM (inactive)
same,GI50,TK-10,> 100 µM (inactive)
same,GI50,SK-MEL-2,> 100 µM (inactive)
same,GI50,HL-60,11.7 µM (inactive)
same,GI50,SF-295,> 100 µM (inactive)

# Reference: ChEMBL document CHEMBL1201862, “PubChem BioAssay data set” (2004)
